Laboratory results as given in US12304912B2, “Fused bicyclic RAF inhibitors and methods for use thereof” (Jazz Pharmaceuticals Ireland Limited, priority 2020, dated 2025).
Like-named read-outs stand apart in the source and are kept apart here.

Columns and labels:
[1] = test system: BRAF monomers in A375 cells; experiment: A375 AlphaLISA SureFire pERK1/2 cellular assay (monomer); assay type: cell-based; conditions: Homo sapiens, A-375; A375 cells, 1 hr; read-out: pERK A375 (1 hr) pIC50 (converted)
How it was run: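 BRAF^V600E A375 melanoma cells seeded at 30,000/well in DMEM with 10% FBS, dosed without medium exchange in a 10-point series from 10 μM at 1/2-log steps, 1 h at 37 °C. Phospho-ERK1/2 (Thr202/Tyr204) measured in lysates by AlphaLISA SureFire; absolute IC50 relative to DMSO control.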

[2] = test system: constitutive ERK phosphorylation in HCT-116 cells; experiment: HCT-116 AlphaLISA SureFire pERK1/2 cellular assay; assay type: cell-based, human; conditions: Homo sapiens, HCT-116, HCT116 cells, 2 hr, read-out: pERK HCT116 (2 hr) Abs pIC50 (converted)
How it was run: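 Cells seeded overnight (30,000/well for 2 h, 15,000/well for 24 h), then dosed in 1% FBS medium with a 10-point series from 1 μM top, 1/3 log steps, for 2 or 24 h at 37 °C. Lysates read by AlphaLISA for Thr202/Tyr204 pERK1/2; absolute IC50 versus DMSO control.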

[3] = Plasma protein binding assay, human plasma (hPPB); assay type: in vitro ADME; conditions: 5 μM
How it was run: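 Equilibrium dialysis of 5 μM compound in previously frozen human or mouse plasma against phosphate buffer, 4 h at 37 °C. Both chambers quantified by LC-MS/MS; % free = (1−((PC−PF)/PC))×100.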

[4] = equilibrium dialysis 4 hours at 37° C.
[5] = equilibrium dialysis 4 hours 37° C.

Compound	IC50 [1] [nM]	IC50 ([2]; Abs) [nM]	hPPB (% free) [3, 4] [% free]	IC50 ([2]; absolute IC50) [nM]	hPPB (% free) [3, 5] [% free]
O=C(Nc1cc(Oc2ccc3c(c2)CC(c2nc(-c4ccccc4)c[nH]2)CO3)ccn1)C1CC1 (racemic) [Compound 136]	162	27.5	0.2		
O=C1CCc2c(Oc3ccc4c(c3)CC(c3nc(-c5cccnc5C(F)(F)F)c[nH]3)CO4)ccnc2N1 (stereo not drawn) [Compound 128, 5-[3-[4-[2-(trifluoromethyl)-3-pyridyl]-1H-imidazol-2-yl]chroman-6-yl]oxy-3,4-dihydro-1H-1,8-naphthyridin-2-one]	832	389	0.9		
O=C(Nc1nccc(Oc2ccc3c(c2)CC(c2nc(-c4ccccc4)c[nH]2)CO3)n1)C1CC1 (stereo not drawn) [Compound 148, N-[4-[3-(4-phenyl-1H-imidazol-2-yl)chroman-6-yl]oxypyrimidin-2-yl]cyclopropanecarboxamide]	1230	302	0.9		
O=C1CCc2c(Oc3ccc4c(c3)CC(c3nc(C5CCOCC5)c[nH]3)CO4)ccnc2N1 (stereo not drawn) [Compound 132, 5-[3-(4-tetrahydropyran-4-yl-1H-imidazol-2-yl)chroman-6-yl]oxy-3,4-dihydro-1H-1,8-naphthyridin-2-one]	759	347	2.6		
CN(C)c1ccc2[nH]c(C3COc4ccc(Oc5ccnc6c5CCC(=O)N6)cc4C3)nc2c1 (stereo not drawn) [Compound 26]	64.6			417	0.7
O=C1CCc2c(Oc3ccc4c(c3)CN(C(=O)Nc3ccc(C(F)(F)F)cc3)CC4)ccnc2N1 [Compound 47]	229			69.2	0.7
Cc1cc(-c2c[nH]c(C3COc4ccc(Oc5ccnc6c5CCC(=O)N6)cc4C3)n2)n(C2CC2)n1 (stereo not drawn) [Compound 114, 5-[3-[4-(2-cyclopropyl-5-methyl-pyrazol-3-yl)-1H-imidazol-2-yl]chroman-6-yl]oxy-3,4-dihydro-1H-1,8-naphthyridin-2-one]	2570	> 1000	1.2		
O=C1CCc2c(Oc3ccc4c(c3)CC(c3nc(-c5cncc(C(F)F)c5)c[nH]3)CO4)ccnc2N1 (stereo not drawn) [Compound 105, 5-[3-[4-[5-(difluoromethyl)-3-pyridyl]-1H-imidazol-2-yl]chroman-6-yl]oxy-3,4-dihydro-1H-1,8-naphthyridin-2-one]	417	178	1.0		
c1ccc(-c2c[nH]c(C3COc4ccc(Oc5ccnc(Nc6ccccn6)c5)cc4C3)n2)cc1 (stereo not drawn) [Compound 140, 4-[3-(4-phenyl-1H-imidazol-2-yl)chroman-6-yl]oxy-N-(2-pyridyl)pyridin-2-amine]	5890	> 1000	<0.1		
Cc1cc(-c2c[nH]c(C3COc4ccc(Oc5ccnc6c5CCC(=O)N6)cc4C3)n2)n(CC(F)(F)F)n1 (stereo not drawn) [Compound 126, 5-[3-[4-[5-methyl-2-(2,2,2-trifluoroethyl)pyrazol-3-yl]-1H-imidazol-2-yl]chroman-6-yl]oxy-3,4-dihydro-1H-1,8-naphthyridin-2-one]	794	501	1.0		
O=C(Nc1cc(Oc2ccc3c(c2)CC(c2nc(-c4ccccc4)c[nH]2)CO3)ccn1)C1CC(F)(F)C1 (stereo not drawn) [Compound 139]	1070	200	<0.1		
CN1CCN(CC(=O)Nc2cc(Oc3ccc4c(c3)CC(c3nc(-c5ccccc5)c[nH]3)CO4)ccn2)CC1 (stereo not drawn) [Compound 146, 2-(4-methylpiperazin-1-yl)-N-[4-[3-(4-phenyl-1H-imidazol-2-yl)chroman-6-yl]oxy-2-pyridyl]acetamide]	372	178	1.5		
COc1ccsc1-c1c[nH]c(C2COc3ccc(Oc4ccnc5c4CCC(=O)N5)cc3C2)n1 (stereo not drawn) [Compound 123]	28.2	63.1	0.23		
